Experiment: SPF in vitro / UVA PF from UV transmittance through thin film on PMMA plates
Conditions: for SPF in vitro mean / UV APF: 0.75 mg/cm^2; for SPF P / UV APF P: P (after irradiation, 800 J/m^2-eff)
Protocol: For determining the SPF in vitro value, the protection performance of compounds according to certain embodiments of the present technology, against erythemally-effective UV radiation, largely confined to the UVB (290-320 nm) and short-wavelength UVA (320-340) region, was calculated from the measured in vitro transmittance. The in vitro UVA PF, the UVA protection (320-400 nm), was calculated from the measured in vitro transmittance after irradiation. The Critical Wavelength Value was defined as the wavelength at which the integral of the spectral absorbance curve reached 90% of the integral over the UV spectrum from 290 to 400 nm. It has been settled that this value must be equal or over 370 nm so as to classify the product as broad-spectrum. The study consisted in a comparative assay of non-treated plates against plates treated with each of the compounds and was based on the evaluation of UV-transmittance through a thin film of sunscreen sample spread on a roughened substrate, before an after exposure to a controlled dose of UV radiation from a UV source. A Kontron 933 spectrophotometer equipped with a UV source, an integrating sphere and a monochromatic light able to deliver a flow of energy between 290 and 400 nm was used. The transmittance values were measured at 1 nm intervals. A 10-4 precision laboratory balance was used to control deposited product weight. The irradiation was provided by Sunset Atlas CPS+ with standard filter. Temperature regulation of the equipment was done in the range of 25-35° C. A pre-irradiation dose of 4 times 200 J/m^2-eff (800 J/m^2-eff) was delivered. The substrate was the material to which the sunscreen product was applied. Polymethylmethacrylate (PMMA) plates were used and were roughened on one side to a three-dimensional surface topography of 5 micrometers. Each compound was weighted and applied evenly to the PMMA plate with a 2-phase spreading to achieve a 0.75 mg/cm^2 weight/surface ratio. Spreading was performed with a light spreading move for approximately 30 seconds followed by spreading with greater pressure for approximately 30 seconds. The resulting sample was left to equilibrate for 15 minutes in the dark at room temperature to ensure a self-leveling of the formula. To account for lack of photostability, a pre-irradiation was necessary. The pre-irradiation dose was 4 minimal erythema dose (MEDs), equivalent to 800 J/m^2-eff. Five measurements of spectral irradiance transmitted for each wavelength through the PMMA plate covered with the sunscreen product were obtained after pre-irradiation of the sunscreen product [P1( ), P2( ), P3( ), P4( ) and P5( )]. For each compound, mean absorbance values were determined from at least three individual PMMA plates. To validate the accuracy of the results, a control product with an established SPF of 18-20, Lot 11T0313 was tested simultaneously with the compounds. SPF in vitro was calculated for each plate using the Colipa 2011 equation.

Compound | SPF Change % [%] | ΔSPF | SPF in vitro mean | UV APF | SPF P | UV APF P
CCOC(=O)C1CSC2=C(CC(C)(C)C/C2=N\c2ccc(/N=N/c3ccccc3)cc2)N1 (stereo not drawn) [Formula 15] | 41 | 8 | 28.31 | 4.52 | 27.34 | 4.49
CCOC(=O)C1CSC2=C(CC(C)(C)C/C2=N\c2ccc(-c3ccccc3)cc2)N1 (stereo not drawn) [Formula 19] | 35 | 7 | 27.12 | 4.07 | 24.31 | 3.92
CCOC(=O)CNC1=C/C(=N/c2ccc(-c3ccccc3)cc2)CC(C)(C)C1 [Formula 31] | 63 | 13 | 32.75 | 2.95 | 30.52 | 2.88
CCOC(=O)CNC1=C/C(=N/c2ccc(/N=N/c3ccccc3)cc2)CC(C)(C)C1 [Formula 33] | 81 | 16 | 36.23 | 4.26 | 33.16 | 4.36
CCOC(=O)CNC1=C/C(=N/c2ccc(/N=N/c3ccc([N+](=O)[O-])cc3)cc2)CC(C)(C)C1 [Formula 35] | 7 | 2 | 21.53 | 17.35 | 17.94 | 14.64
COC(=O)C1CSC2=C(CC(C)(C)C/C2=N\c2ccc(OC)cc2)N1 (stereo not drawn) [Formula 43] | 4 | 1 | 20.84 | 4.02 | 18.59 | 3.94
CCOC(=O)CNC1=CC(Nc2ccc(OC)cc2)CC(C)(C)C1 (stereo not drawn) [Formula 72] | 18 | 4 | 23.61 | 2.85 | 21.12 | 2.74
COc1ccc(NC2C=C(NCC(=O)O)CC(C)(C)C2)cc1 (stereo not drawn) [Formula 73] | 61 | 12 | 32.31 | 16.05 | 27.60 | 13.08

— US20240254096A1, “ULTRAVIOLET AND VISIBLE RADIATION ABSORBING COMPOUNDS” (ELKIMIA INC., priority 2021, published 2024)
